{
  "source": "patent US4610989A",
  "about": "“Analgesic composition containing a mixture of 6-chloro-α-methyl-carbazole-2-acetic acid plus an opiate as the active agent” (priority 1985, dated 1986)",
  "test_system": "phenylquinone induced writhing",
  "type": "in vivo, male CF-1 mice",
  "conditions": "for ED50 (95% Conf. Limits): p.o.; for ED50 (95% Conf. Limits) / Oral ED50 (95% Confidence Limits) / Oral Ed50: given alone; for Oral ED50 (95% Confidence Limits): Table II; for % Inhibition / No. Writhing Episodes: alone",
  "protocol": "The phenylquinone was dissolved in 5% ethyl alcohol and distilled water, gently heated to 37° C. and kept in a brown stoppered bottle to prevent deterioration. The test compounds were administered orally, in rapid succession, in distilled water 15 minutes prior to the phenylquinone.\nThe means and standard deviations computed during this analysis were then analyzed by \"parallel line bioassay\" that compared the opiate alkaloid alone in graded doses against, in turn, each combination of a range of opiate alkaloid doses plus a constant dose of carbazole compound. […] The opiate alkaloid dose scale here was always logarithmic.\nThe sequence of treatments in this study was not random. Rather, the ED50 for opiate alkaloid alone was determined. After this, combination experiments were conducted in which the carbazole racemic 6-chloro-α-methyl-carbazole-2-acetic acid, was administered at a constant dose and the ED50 of opiate alkaloid was redetermined in the presence of racemic 6-chloro-α-methyl-carbazole-2-acetic acid.\nInhibition of phenylquinone induced writhing by oxycodone potentiated by 6-chloro-α-methyl carbazole-2-acetic acid was determined by the procedure described hereinabove with one change. […] This transformation consisted of the [(square root of the number of writhes)+(square root of the number of writhes+1)] and is commonly employed with data that are distributed in a Poisson distribution.\nInhibition of phenylquinone induced writhing by morphine potentiated by 6-chloro-α-methyl-carbazole-2-acetic acid was determined by the procedure described hereinabove with one further change. […] This analysis was carried out on the set of values representing the percent of inhibition of writhing observed at each dose, as defined above, in any given assay.",
  "key": {"[1]": {"conditions": "Table I, regression analysis and Fieller's Theorem"}, "[2]": {"conditions": "Table III, square-root transformed writhes"}, "[3]": {"conditions": "Table V, Litchfield and Wilcoxon"}},
  "note": "“And” between values parts separate entries of the source, which are not always exact repeats. Equal entries are not always repeated. Where two headings read alike, the source gives them in different places.",
  "data": [
    {"smiles": "COc1ccc2c3c1O[C@H]1[C@@H](O)C=C[C@H]4[C@@H](C2)N(C)CC[C@@]341", "note": "[Codeine, codeine]", "values": [
      {"measurement": "ED50 (95% Conf. Limits)", "setting": "[1]", "value": "9.2 (6.6-11.9) mg/kg"},
      {"measurement": "Oral ED50 (95% Confidence Limits)", "value": "9.2 (6.6-11.9)"},
      {"measurement": "% Inhibition", "setting": "oral dose 5", "value": 19, "unit": "%"},
      {"measurement": "No. Writhing Episodes", "setting": "oral dose 5", "value": 92},
      {"measurement": "% Inhibition", "setting": "oral dose 10", "value": 62, "unit": "%"},
      {"measurement": "No. Writhing Episodes", "setting": "oral dose 10", "value": 43},
      {"measurement": "% Inhibition", "setting": "oral dose 20", "value": 86, "unit": "%"},
      {"measurement": "No. Writhing Episodes", "setting": "oral dose 20", "value": 16},
      {"measurement": "% Inhibition", "setting": "oral dose 40", "value": 98, "unit": "%"},
      {"measurement": "No. Writhing Episodes", "setting": "oral dose 40", "value": 2}
    ]},
    {"smiles": "COc1ccc2c3c1O[C@H]1C(=O)CC[C@@]4(O)[C@@H](C2)N(C)CC[C@]314", "note": "[Oxycodone, oxycodone]", "values": [
      {"measurement": "ED50 (95% Conf. Limits)", "setting": "[2]", "value": "0.25 (0.19-0.32) mg/kg"},
      {"measurement": "Oral Ed50", "setting": "Table IV", "value": "0.25(0.19-0.32)"},
      {"measurement": "% Inhibition", "setting": "oral dose 0.125", "value": 23, "unit": "%"},
      {"measurement": "No. Writhing Episodes", "setting": "oral dose 0.125", "value": 87},
      {"measurement": "% Inhibition", "setting": "oral dose 0.25", "value": 43, "unit": "%"},
      {"measurement": "No. Writhing Episodes", "setting": "oral dose 0.25", "value": 64},
      {"measurement": "% Inhibition", "setting": "oral dose 0.5", "value": 73, "unit": "%"},
      {"measurement": "No. Writhing Episodes", "setting": "oral dose 0.5", "value": 31},
      {"measurement": "% Inhibition", "setting": "oral dose 1", "value": 88, "unit": "%"},
      {"measurement": "No. Writhing Episodes", "setting": "oral dose 1", "value": 14},
      {"measurement": "% Inhibition", "setting": "oral dose 2", "value": 96, "unit": "%"},
      {"measurement": "No. Writhing Episodes", "setting": "oral dose 2", "value": 5}
    ]},
    {"smiles": "CC(C(=O)O)c1ccc2c(c1)[nH]c1ccc(Cl)cc12", "note": "(racemic) [Compound A, 6-chloro-α-methyl-carbazole-2-acetic acid]", "values": [
      {"measurement": "ED50 (95% Conf. Limits)", "setting": "[1]", "value": "48.8 (25.7-72.0) mg/kg"},
      {"measurement": "Oral ED50 (95% Confidence Limits)", "value": "48.8 (25.7-72.0)"},
      {"measurement": "ED50 (95% Conf. Limits)", "setting": "[2]", "value": "41.9 (33.5-50.0) mg/kg"},
      {"measurement": "Oral Ed50", "setting": "Table IV", "value": "41.9(33.5-50.0)"},
      {"measurement": "ED50 (95% Conf. Limits)", "setting": "[3]", "value": "54(27-108) mg/kg"},
      {"measurement": "Oral Ed50", "setting": "Table VI", "value": "54(27-108)"},
      {"measurement": "% Inhibition", "setting": "oral dose 25", "value": "17% and 18% and 29%"},
      {"measurement": "No. Writhing Episodes", "setting": "oral dose 25", "value": "91 and 103 and 86"},
      {"measurement": "% Inhibition", "setting": "oral dose 50", "value": "58% and 48% and 51%"},
      {"measurement": "No. Writhing Episodes", "setting": "oral dose 50", "value": "47 and 66 and 59"},
      {"measurement": "% Inhibition", "setting": "oral dose 100", "value": "87% and 73% and 74%"},
      {"measurement": "% Inhibition", "setting": "oral dose 200", "value": "96% and 90% and 91%"}
    ]},
    {"smiles": "CN1CC[C@]23c4c5ccc(O)c4O[C@H]2[C@@H](O)C=C[C@H]3[C@H]1C5", "note": "[Morphine, morphine]", "values": [
      {"measurement": "ED50 (95% Conf. Limits)", "setting": "[3]", "value": "2.5(1-4) mg/kg"},
      {"measurement": "Oral Ed50", "setting": "Table VI", "value": "2.5(1-4)"},
      {"measurement": "% Inhibition", "setting": "oral dose 1.25", "value": 21, "unit": "%"},
      {"measurement": "% Inhibition", "setting": "oral dose 2.5", "value": 47, "unit": "%"},
      {"measurement": "% Inhibition", "setting": "oral dose 5", "value": 83, "unit": "%"},
      {"measurement": "% Inhibition", "setting": "oral dose 10", "value": 95, "unit": "%"}
    ]}
  ]
}
